PubChem BioAssay AID248 (DTP/NCI, 2004)
Several values for one entry are separate records, joined by “and”; a condition that tells them apart may be missing. Equal entries are not always repeated. Inconclusive results and toxic doses are left out.

Test system: L1210 leukemia ip in BDF1 mice, survival T/C
Experiment: NCI In Vivo Anticancer Drug Screen. Data for tumor model L1210 Leukemia (intraperitoneal) in B6D2F1 (BDF1) mice
Conditions: endpoint: mean survival time, higher = longer survival
Procedure, shortened: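 Transplanted-tumor mice were given test agent; controls received vehicle only. Survival readings from the two groups were divided (treated over control).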

[1] = dose: 100.0 mg/kg/injection, schedule: Q01DX001 (ip), vehicle: saline
[2] = dose: 200.0 mg/kg/injection, schedule: Q01DX001 (ip), vehicle: saline
[3] = dose: 400.0 mg/kg/injection, schedule: Q01DX001 (ip), vehicle: saline

O=[N+]([O-])c1ccc2nncn2c1
T/C (dose: 50.0 mg/kg/injection, schedule: Q01DX001 (ip), vehicle: saline): 91 % of control | T/C [1]: 97 % of control | T/C [2]: 103 % of control | T/C [3]: 101 % of control

CCOC(=O)Nc1cc(NC(c2ccccc2)c2ccccc2)c2[nH]cnc2n1
T/C (dose: 4.0 mg/kg/injection, schedule: Q01DX009 (ip), vehicle: other): 92 % of control | T/C (dose: 5.0 mg/kg/injection, schedule: Q01DX001 (ip), vehicle: other): 104 % of control | T/C (dose: 7.0 mg/kg/injection, schedule: Q01DX009 (ip), vehicle: other): 93 % of control | T/C (dose: 9.0 mg/kg/injection, schedule: Q01DX009 (ip), vehicle: other): 95 % of control | T/C (dose: 9.0 mg/kg/injection, schedule: Q01DX009 (ip), vehicle: steriod suspending solution): 97 % of control | T/C (dose: 10.0 mg/kg/injection, schedule: Q01DX001 (ip), vehicle: other): 102 % of control | T/C (dose: 12.0 mg/kg/injection, schedule: Q01DX009 (ip), vehicle: other): 92 % of control | T/C (dose: 13.0 mg/kg/injection, schedule: Q01DX009 (ip), vehicle: other): 95 % of control | T/C (dose: 13.0 mg/kg/injection, schedule: Q01DX009 (ip), vehicle: steriod suspending solution): 97 % of control | T/C (dose: 18.0 mg/kg/injection, schedule: Q01DX001 (ip), vehicle: steriod suspending solution): 98 % of control | T/C (dose: 20.0 mg/kg/injection, schedule: Q01DX001 (ip), vehicle: other): 100 % of control and 106 % of control | T/C (dose: 20.0 mg/kg/injection, schedule: Q01DX009 (ip), vehicle: other): 95 % of control and 112 % of control | T/C (dose: 20.0 mg/kg/injection, schedule: Q01DX009 (ip), vehicle: steriod suspending solution): 103 % of control | T/C (dose: 26.0 mg/kg/injection, schedule: Q01DX001 (ip), vehicle: steriod suspending solution): 100 % of control | T/C (dose: 30.0 mg/kg/injection, schedule: Q01DX001 (ip), vehicle: other): 119 % of control | T/C (dose: 30.0 mg/kg/injection, schedule: Q01DX009 (ip), vehicle: other): 105 % of control | T/C (dose: 30.0 mg/kg/injection, schedule: Q01DX009 (ip), vehicle: steriod suspending solution): 124 % of control | T/C (dose: 40.0 mg/kg/injection, schedule: Q01DX001 (ip), vehicle: other): 164 % of control | T/C (dose: 40.0 mg/kg/injection, schedule: Q01DX001 (ip), vehicle: steriod suspending solution): 105 % of control | T/C (dose: 50.0 mg/kg/injection, schedule: Q01DX001 (ip), vehicle: other): 155 % of control | T/C (dose: 60.0 mg/kg/injection, schedule: Q01DX001 (ip), vehicle: other): 119 % of control | T/C (dose: 60.0 mg/kg/injection, schedule: Q01DX001 (ip), vehicle: steriod suspending solution): 111 % of control | T/C (dose: 80.0 mg/kg/injection, schedule: Q01DX001 (ip), vehicle: other): 107 % of control | T/C (dose: 100.0 mg/kg/injection, schedule: Q01DX001 (ip), vehicle: other): 107 % of control

CCOc1ccc(NC(=S)NC(=O)c2cccc3ccccc23)cc1
T/C (dose: 100.0 mg/kg/injection, schedule: Q01DX009 (ip), vehicle: saline): 96 % of control | T/C (dose: 100.0 mg/kg/injection, schedule: Q04DX003 (ip), vehicle: saline): 92 % of control | T/C (dose: 200.0 mg/kg/injection, schedule: Q01DX009 (ip), vehicle: saline): 96 % of control | T/C (dose: 200.0 mg/kg/injection, schedule: Q04DX003 (ip), vehicle: saline): 100 % of control | T/C (dose: 400.0 mg/kg/injection, schedule: Q01DX009 (ip), vehicle: saline): 95 % of control | T/C (dose: 400.0 mg/kg/injection, schedule: Q04DX003 (ip), vehicle: saline): 92 % of control

CC1(C)C2CC=C(CCOC(=O)COc3cc(Cl)c(Cl)cc3Cl)C1C2 (centres undefined)
T/C (dose: 160.0 mg/kg/injection, schedule: Q01DX Z (ip), vehicle: other): 105 % of control | T/C (dose: 240.0 mg/kg/injection, schedule: Q01DX Z (ip), vehicle: other): 109 % of control | T/C (dose: 350.0 mg/kg/injection, schedule: Q01DX Z (ip), vehicle: other): 88 % of control

Cc1cc(C2=NCCN2)ccc1NC(=O)c1ccc(C(=O)Nc2ccc(C3=NCCN3)cc2C)cc1
T/C (dose: 15.0 mg/kg/injection, schedule: Q01DX Z (ip), vehicle: saline): 100 % of control | T/C (dose: 30.0 mg/kg/injection, schedule: Q01DX Z (ip), vehicle: saline): 106 % of control | T/C (dose: 60.0 mg/kg/injection, schedule: Q01DX Z (ip), vehicle: saline): 110 % of control

O=C(/C=C1\C(=O)Nc2ccccc21)/C=C1/C(=O)Nc2ccccc21
T/C (dose: 100.0 mg/kg/injection, schedule: Q01DX009 (ip), vehicle: Klucel (hydroxypropylcellulose) (HPC)): 93 % of control

CONP(=O)(NOC)c1ccccc1
T/C [1]: 103 % of control | T/C [2]: 95 % of control | T/C [3]: 90 % of control
